Results from article PMC2832868 (Journal of Medicinal Chemistry, 2010).
Like-named read-outs stand apart in the source and are kept apart here. Marks after values point to notes of the source that are not given here.

Columns and labels:
[1] = Solubility in aqueous buffer; format: physicochemical
[2] = mice, cited from earlier work
Pharmacokinetics in mice = format: in vivo

For NC1(Cc2ccc(Cl)cc2)CCN(c2ncnc3[nH]ccc23)CC1 [Compound 2, 4-(4-chlorobenzyl)-1-(7H-pyrrolo[2,3-d]pyrimidin-4-yl)piperidin-4-amine], which “solubility (S) at pH 7” value [1] is on record?
Its value is “negligible solubility”.

What about the Foral ([2]; oral administration of same dose (25 mg kg^−1)) of the same compound?
The Foral was 8.5%.

And the Clp ([2]; plasma, IV dose 25 mg kg^−1)?
Its Clp is 0.33 L/h.

With CC(C)(C)c1ccc(CC2(N)CCN(c3ncnc4[nH]ccc34)CC2)cc1 [Compound 10, 4-(4-tert-Butylbenzyl)-1-(7H-pyrrolo[2,3-d]pyrimidin-4-yl)piperidin-4-amine] as the compound, how does the Foral (Pharmacokinetics in mice; oral administration of same dose (10 mg kg^−1)) read?
Its Foral is <1 ^c %.

What about the “drug levels following oral dosing” value (Pharmacokinetics in mice; oral dosing 10 mg/kg) of the same compound?
The value was “no measurable drug levels”.
